Laboratory results taken from US20020002171A1, “Materials and methods for killing nematodes and nematode eggs” (priority 2000, published 2002).

System: Caenorhabditis elegans
Experiment: C. elegans L1 nematicidal dose response in 96-well plates, 5 day visual score (Example 2; same procedure for Example 7, Table 3)
Assay type: in vivo
Parameters: key to 5 Day Visual Score V1 / 5 Day Visual Score V2 / 5 Day Visual Score V3 / 5 Day Visual Score V4 / 5 Day Visual Score V6 / 5 Day Visual Score V5 / Initial HTS Run Visual Score / Follow-up HTS Run Visual Score: Dead: only stiff L1s (no movement); Dead (L4): worms are dead, but at a later larval stage; majority of worms are L1 (based on size) worms move when plate is tapped; majority of worms are L2 (based on size); majority of worms are L3 (based on size); majority of worms are L4 (based on size); AD: majority of worms are adult; #AD: 5 adult worms or less; B!: sterile (0-25 progeny); B: low broodsize (25-100 progeny); ˜B: moderate broodsize (100-250 progeny); <: reduced broodsize (250-500 progeny); OK: no effect (˜1000+ progeny)
Details: for 5 Day Visual Score V1 / 5 Day Visual Score V3 / 5 Day Visual Score V4 / 5 Day Visual Score V5 / 5 Day Visual Score V6 / 5 Day Visual Score V2: dose response; for 5 Day Visual Score V1: dilution V1, day 5; for 5 Day Visual Score V3: dilution V3, day 5; for 5 Day Visual Score V4: dilution V4, day 5; for 5 Day Visual Score V5: dilution V5, day 5; for 5 Day Visual Score V6: dilution V6, day 5; for 5 Day Visual Score V2: dilution V2, day 5
Summary of the method: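 L1 larvae, 20 per well in NGM with 1% E. coli HB101 and antibiotic/antimycotic, exposed to six 3-fold dilutions from 70 μM down to 0.3 μM (1.4% DMSO at top). Held at 20° C; viability scored visually under 100× dissecting microscope on day 5.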

Compound	Follow-up HTS Run % Run	Follow-up HTS Run Visual Score	Follow-up HTS Run mOD	Initial HTS Run % Run	Initial HTS Run Visual Score	Initial HTS Run mOD	5 Day Visual Score V1	5 Day Visual Score V3	5 Day Visual Score V4	5 Day Visual Score V5	5 Day Visual Score V6	5 Day Visual Score V2
CN(CCO)c1nc(NCc2ccc(C(F)(F)F)cc2)ns1 [compound 256]	112%	L2 - Dead L3	180 mOD	106%	L2 - (Dead L3)	117 mOD	Dead	OK (no effect (˜1000+ progeny))	OK (no effect (˜1000+ progeny))	OK (no effect (˜1000+ progeny))	OK (no effect (˜1000+ progeny))	
COCCN(CCOC)c1nc(NCc2ccc(C(F)(F)F)cc2)ns1 [compound 257]	104%	L4/AD/B!	168 mOD	91%	L4/AD/B!	100 mOD	L1	OK (no effect (˜1000+ progeny))	OK (no effect (˜1000+ progeny))	OK (no effect (˜1000+ progeny))	OK (no effect (˜1000+ progeny))	˜B (moderate broodsize (100-250 progeny))
FC(F)(F)c1cccc(N2CCN(c3nc(NCc4ccccc4C(F)(F)F)ns3)CC2)c1 [compound 258]	124%	B! (sterile (0-25 progeny))	200 mOD	111%	L4/AD/B!-Few Eggs	122 mOD		˜B (moderate broodsize (100-250 progeny))	˜B (moderate broodsize (100-250 progeny))	OK (no effect (˜1000+ progeny))	OK (no effect (˜1000+ progeny))	
CCCN(CC1CC1)c1nc(NCc2ccccc2C(F)(F)F)ns1 [compound 260]	147%	L2	236 mOD	122%	L2 (Dead L3)	134 mOD	L1	OK (no effect (˜1000+ progeny))	OK (no effect (˜1000+ progeny))	OK (no effect (˜1000+ progeny))	OK (no effect (˜1000+ progeny))	B (low broodsize (25-100 progeny))
CC1CCN(c2nc(NCc3ccccc3)ns2)CC1 [compound 261]	96%		155 mOD	96%	L3/L4/AD/B!	106 mOD	Dead	OK (no effect (˜1000+ progeny))	OK (no effect (˜1000+ progeny))	OK (no effect (˜1000+ progeny))	OK (no effect (˜1000+ progeny))	
OC1CCN(c2nc(NCc3ccccc3)ns2)CC1 [compound 262]	106%		171 mOD	110%	L3/L4/AD/B!	121 mOD	L4/#AD/B!	OK (no effect (˜1000+ progeny))	OK (no effect (˜1000+ progeny))	OK (no effect (˜1000+ progeny))	OK (no effect (˜1000+ progeny))	< (reduced broodsize (250-500 progeny))
OCC1CCCN(c2nc(NCc3ccccc3)ns2)C1 (centres unmarked) [compound 263]	104%		167 mOD	110%		121 mOD		OK (no effect (˜1000+ progeny))	OK (no effect (˜1000+ progeny))	OK (no effect (˜1000+ progeny))	OK (no effect (˜1000+ progeny))	˜B (moderate broodsize (100-250 progeny))
CC1CC(C)CN(c2nc(NCc3ccccc3)ns2)C1 (centres unmarked) [compound 264]	110%	L4/AD/B	177 mOD	104%	L4/AD/B	114 mOD	L2	< (reduced broodsize (250-500 progeny))	OK (no effect (˜1000+ progeny))	OK (no effect (˜1000+ progeny))	OK (no effect (˜1000+ progeny))	
